From patent US11932658B2 (BRISTOL-MYERS SQUIBB COMPANY, priority 2016, dated 2024) come the findings set out here.

Structures are written as SMILES.

The experiment deals with T1, PAR4 (Homo sapiens, UniProt Q96RI0).
T1 construct: expressed in transfected cells; host or cells: HEK293 PAR4 Clone 1.2A (BMS Arctic ID 383940)
T1 sequence (Q96RI0 18-385): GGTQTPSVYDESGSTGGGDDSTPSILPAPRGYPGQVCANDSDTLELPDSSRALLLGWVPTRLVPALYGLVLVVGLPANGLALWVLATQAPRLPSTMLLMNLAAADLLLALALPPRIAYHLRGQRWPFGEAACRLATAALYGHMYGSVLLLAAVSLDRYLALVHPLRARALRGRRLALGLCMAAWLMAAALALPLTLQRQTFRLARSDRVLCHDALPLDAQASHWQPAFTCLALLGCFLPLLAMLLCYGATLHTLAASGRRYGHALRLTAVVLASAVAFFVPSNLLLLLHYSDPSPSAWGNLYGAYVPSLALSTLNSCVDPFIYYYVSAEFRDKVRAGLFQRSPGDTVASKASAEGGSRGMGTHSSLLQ
Description: PAR4 FLIPR assay (antagonism of agonist peptide-induced calcium mobilization). It is filed as cell-based. In outline: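 Antagonism was taken as block of calcium mobilization evoked by the agonist peptide H-Ala-Phe(4-F)-Pro-Gly-Trp-Leu-Val-Lys-Asn-[…]-NH2, added after 30 min room-temperature compound preincubation in dye-loaded PAR4-transfected HEK293 cells (endogenous PAR1). Fluorescence was read on FDSS, with compound addition alone used as the agonist counter-screen; values come from 11-point concentration-response curves.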
(In general: Calcium flux is commonly read through the fluorescence of an indicator in the cells.)
As for `COc1cnc2c(-c3nc4cc(F)c5c(c4s3)C[C@H](CNC(=O)Cc3ccccc3)O5)cc(C)cc2n1` [Example 217, (R)-N-((5-fluoro-2-(2-methoxy-7-methylquinoxalin-5-yl)-7,8-dihydrobenzofuro[5,4-d]thiazol-7-yl)methyl)-2-phenylacetamide], the IC50 stood at 120 nM.

In the case of `COC(=O)NC[C@H]1Cc2c(c(F)cc3nc(-c4cc(C)cc5nc(OC)cnc45)sc23)O1` [Example 218, (R)-methyl ((5-fluoro-2-(2-methoxy-7-methylquinoxalin-5-yl)-7,8-dihydrobenzofuro[5,4-d]thiazol-7-yl)methyl)carbamate], the IC50 was 15 nM.

For the compound `COc1cnc2c(-c3nc4cc(F)c5c(c4s3)C[C@H](CNC(C)=O)O5)cc(C)cc2n1` [Example 219, (R)-N-((5-fluoro-2-(2-methoxy-7-methylquinoxalin-5-yl)-7,8-dihydrobenzofuro[5,4-d]thiazol-7-yl)methyl)acetamide], the 50% inhibitory concentration (IC50) amounted to 180 nM.

For the compound `COc1cnc2c(-c3nc4cc(F)c5c(c4s3)C[C@H](CNC(=O)Oc3ccccc3)O5)cc(C)cc2n1` [Example 220, (R)-phenyl ((5-fluoro-2-(2-methoxy-7-methylquinoxalin-5-yl)-7,8-dihydrobenzofuro[5,4-d]thiazol-7-yl)methyl)carbamate], the IC50 worked out at 38 nM.

Regarding `COc1cnc2c(-c3nc4cc(F)c5c(c4s3)C[C@H](CNC(=O)OCc3ccccc3)O5)cc(C)cc2n1` [Example 221, (R)-benzyl ((5-fluoro-2-(2-methoxy-7-methylquinoxalin-5-yl)-7,8-dihydrobenzofuro[5,4-d]thiazol-7-yl)methyl)carbamate], the IC50 amounted to 5.9 nM.

As for `COc1cnc2c(-c3nc4cc(F)c5c(c4s3)C[C@H](CNC(=O)C(F)(F)F)O5)cc(C)cc2n1` [Example 222, (R)-2,2,2-trifluoro-N-((5-fluoro-2-(2-methoxy-7-methylquinoxalin-5-yl)-7,8-dihydrobenzofuro[5,4-d]thiazol-7-yl)methyl)acetamide], the half-inhibitory concentration (IC50) was more than 500 nM.

Regarding `COc1cnc2c(-c3nc4cc(F)c5c(c4s3)C[C@H](CNC(=O)OC(C)(C)C)O5)cc(C)cc2n1` [Example 223, (R)-tert-butyl ((5-fluoro-2-(2-methoxy-7-methylquinoxalin-5-yl)-7,8-dihydrobenzofuro[5,4-d]thiazol-7-yl)methyl)carbamate], the IC50 was determined as 5.8 nM.

For the compound `COc1cnc2c(-c3nc4ccc5c(c4s3)C[C@@H](CNC(=O)OCC(C)C)O5)cc(C)cc2n1` [Example 224, (S)-isobutyl ((2-(2-methoxy-7-methylquinoxalin-5-yl)-7,8-dihydrobenzofuro [5,4-d]thiazol-7-yl)methyl)carbamate], the IC50 is 4 nM.

`COc1cnc2c(-c3nc4ccc5c(c4s3)C[C@@H](CNC(=O)OCc3ccccc3)O5)cc(C)cc2n1` [Example 225, (S)-benzyl ((2-(2-methoxy-7-methylquinoxalin-5-yl)-7,8-dihydrobenzofuro[5,4-d]thiazol-7-yl)methy 1)carbamate]: the IC50 amounted to 0.6 nM.

Consider `COC(=O)NC[C@@H]1Cc2c(ccc3nc(-c4cc(C)cc5nc(OC)cnc45)sc23)O1` [Example 226, (S)-methyl ((2-(2-methoxy-7-methylquinoxalin-5-yl)-7,8-dihydrobenzofuro[5,4-d]thiazol-7-yl)methy 1)carbamate], for which the IC50 was found to be 1.4 nM.

`COc1cnc2c(-c3nc4ccc5c(c4s3)C[C@@H](CNC(=O)OC3CCOCC3)O5)cc(C)cc2n1` [Example 227, (S)-tetrahydro-2H-pyran-4-yl ((2-(2-methoxy-7-methylquinoxalin-5-yl)-7,8-dihydrobenzofuro[5,4-d]thiazol-7-yl)methy 1)carbamate]: the IC50 came out at 1.3 nM.

For `COc1cnc2c(-c3nc4ccc5c(c4s3)C[C@@H](CNS(C)(=O)=O)O5)cc(C)cc2n1` [Example 228, (S)-N-((2-(2-methoxy-7-methylquinoxalin-5-yl)-7,8-dihydrobenzofuro[5,4-d]thiazol-7-yl)methyl)methanesulfonamide], the IC50 is 190 nM.

For `COc1cnc2c(-c3nc4ccc5c(c4s3)C[C@@H](CNC(=O)OCC3CCOC3)O5)cc(C)cc2n1` (stereo partly drawn) [Example 229, (Tetrahydrofuran-3-yl)methyl (((S)-2-(2-methoxy-7-methylquinoxalin-5-yl)-7,8-dihydrobenzofuro[5,4-d]thiazol-7-yl)methyl)carbamate], the IC50 was 20 nM.

Turning to `COc1cnc2c(-c3nc4ccc5c(c4s3)C[C@@H](CNC(=O)O[C@@H]3CCOC3)O5)cc(C)cc2n1` [Example 230, (R)-tetrahydrofuran-3-yl (((S)-2-(2-methoxy-7-methylquinoxalin-5-yl)-7,8-dihydrobenzofuro[5,4-d]thiazol-7-yl)methyl)carbamate], the IC50 is 6.4 nM.

For the compound `COc1cnc2c(-c3nc4ccc5c(c4s3)C[C@@H](CNC(=O)OCc3cccc(C#N)c3)O5)cc(C)cc2n1` [Example 231, (S)-3-cyanobenzyl ((2-(2-methoxy-7-methylquinoxalin-5-yl)-7,8-dihydrobenzofuro[5,4-d]thiazol-7-yl)methy 1)carbamate], the IC50 was determined as 5.8 nM.

As for `COc1cnc2c(-c3nc4ccc5c(c4s3)C[C@@H](CNC(=O)OCc3cccnc3)O5)cc(C)cc2n1` [Example 232, (S)-pyridin-3-ylmethyl ((2-(2-methoxy-7-methylquinoxalin-5-yl)-7,8-dihydrobenzofuro[5,4-d]thiazol-7-yl)methy 1)carbamate], the half-inhibitory concentration (IC50) came to 3.3 nM.

For `COc1cnc2c(-c3nc4ccc5c(c4s3)C[C@@H](CNC(=O)OCc3ccncc3)O5)cc(C)cc2n1` [Example 233, (S)-pyridin-4-ylmethyl ((2-(2-methoxy-7-methylquinoxalin-5-yl)-7,8-dihydrobenzofuro[5,4-d]thiazol-7-yl)methy 1)carbamate], the IC50 was determined as 6.6 nM.

Turning to `COc1cnc2c(-c3nc4ccc5c(c4s3)C[C@@H](CNC(=O)OC3CCCOC3)O5)cc(C)cc2n1` (stereo partly drawn) [Example 234, Tetrahydro-2H-pyran-3-yl (((S)-2-(2-methoxy-7-methylquinoxalin-5-yl)-7,8-dihydrobenzofuro[5,4-d]thiazol-7-yl)methyl)carbamate], the IC50 stood at 4.3 nM.

Regarding `COc1cnc2c(-c3nc4ccc5c(c4s3)C[C@@H](CNC(=O)OCC3CCCCO3)O5)cc(C)cc2n1` (stereo partly drawn) [Example 235, (Tetrahydro-2H-pyran-2-yl)methyl (((S)-2-(2-methoxy-7-methylquinoxalin-5-yl)-7,8-dihydrobenzofuro[5,4-d]thiazol-7-yl)methyl)carbamate], the IC50 turned out to be 4.1 nM.

With `COc1cnc2c(-c3nc4ccc5c(c4s3)C[C@@H](CNC(=O)O[C@H]3CCOC3)O5)cc(C)cc2n1` [Example 236, (S)-tetrahydrofuran-3-yl (((S)-2-(2-methoxy-7-methylquinoxalin-5-yl)-7,8-dihydrobenzofuro[5,4-d]thiazol-7-yl)methyl)carbamate], the IC50 turned out to be 2.7 nM.

In the case of `COc1cnc2c(-c3nc4cc(F)c5c(c4s3)C[C@@](C)(COP(=O)(O)O)O5)cc(C)cc2n1` [Example 237, (S)-(5-fluoro-2-(2-methoxy-7-methylquinoxalin-5-yl)-7-methyl-7,8-dihydrobenzofuro[5,4-d]thiazol-7-yl)methyl dihydrogen phosphate], the IC50 was 40 nM.

With `COc1cnc2c(-c3nc4cc(F)c5c(c4s3)[C@H](C)[C@@H](CO)O5)cc(C)cc2n1` [Example 238, ((7S,8S)-5-fluoro-2-(2-methoxy-7-methylquinoxalin-5-yl)-8-methyl-7,8-dihydrobenzofuro[5,4-d]thiazol-7-yl)methanol], the IC50 turned out to be 1.3 nM.

Regarding `COc1cnc2c(-c3nc4cc(F)c5c(c4s3)[C@@H](C)[C@H](CO)O5)cc(C)cc2n1` [Example 239, ((7R,8R)-5-fluoro-2-(2-methoxy-7-methylquinoxalin-5-yl)-8-methyl-7,8-dihydrobenzofuro[5,4-d]thiazol-7-yl)methanol], the IC50 was 49 nM.

Turning to `COC(=O)NC[C@]1(C)Cc2c(c(F)cc3nc(-c4cc(C)cc5nc(OC)cnc45)sc23)O1` [Example 240, (S)-methyl ((5-fluoro-2-(2-methoxy-7-methylquinoxalin-5-yl)-7-methyl-7,8-dihydrobenzofuro[5,4-d]thiazol-7-yl)methyl)carbamate], the IC50 turned out to be 32 nM.

With `COc1cnc2c(-c3nc4cc(F)c5c(c4s3)C[C@@](C)(CNC(=O)OCC(C)C)O5)cc(C)cc2n1` [Example 241, (S)-isobutyl ((5-fluoro-2-(2-methoxy-7-methylquinoxalin-5-yl)-7-methyl-7,8-dihydrobenzofuro[5,4-d]thiazol-7-yl)methyl)carbamate], the IC50 was determined as 8.6 nM.

As for `COc1cnc2c(-c3nc4cc(F)c5c(c4s3)C[C@@](C)(CNC(=O)OC(C)(C)C)O5)cc(C)cc2n1` [Example 242, (S)-tert-butyl ((5-fluoro-2-(2-methoxy-7-methylquinoxalin-5-yl)-7-methyl-7,8-dihydrobenzofuro[5,4-d]thiazol-7-yl)methyl)carbamate], the IC50 was determined as 9.3 nM.

Take `COc1cnc2c(-c3nc4ccc5c(c4s3)C[C@@H](CNC(=O)OC(C)(C)C)O5)cc(C)cc2n1` [Example 244, (S)-tert-butyl ((2-(2-methoxy-7-methylquinoxalin-5-yl)-7,8-dihydrobenzofuro[5,4-d]thiazol-7-yl)methyl)carbamate]: the IC50 is 100 nM.

For orientation: IC50 means the concentration needed to halve the response being measured.
